From ChEMBL document CHEMBL3832087, “DailyMed|setid=a60f39f6-d590-4b00-8751-7f12b7ec5385 | ZAFIRLUKAST- zafirlukast tablet, film coated|American Health Packaging”
Values joined by “and” are separate entries in the source; they are usually repeats but may differ in a detail not shown here. Identical values can stand only once.

How the values were obtained:
Assay type in all cases: ADME, organism-based
[1] = (§1) Evaluation of pharmacokinetic parameters for Zafirlukast following single oral administration to healthy boys and girls.; parameters: dose 20 mg, route oral; conditions: both, human, in vivo, dose 20 mg, dosed compound id 45, dosed compound name ZAFIRLUKAST, regimen Single dose, route oral, tissue Plasma
Homo sapiens [2] = test: as §1; parameters: dose 20 mg, route oral; conditions: in vivo, po, dosed compound id 45, dosed compound name ZAFIRLUKAST, regimen Single dose, tissue Plasma; for CL/F / Tmax: dose 20 mg
[3] = (§2) Evaluation of pharmacokinetic parameters for Zafirlukast following oral administration of Zafirlukast tablets in subjects of varying health status.; conditions: human, dosed compound id 45, dosed compound name ZAFIRLUKAST, tissue Plasma
Homo sapiens [4] = test: as §2; conditions: in vivo, po, dosed compound id 45, dosed compound name ZAFIRLUKAST, gender male and female, tissue Plasma

Tmax ([1]; gender male and female): 2.1 h
half-life [1]: 13.3 h
CL/F (Homo sapiens [2]; gender male and female): 9.2 L/h and 11.4 L/h
Tmax (Homo sapiens [2]; gender male and female): 2.5 h
CL/F (Homo sapiens [2]; gender male): 19.4 L/h
Tmax (Homo sapiens [2]; gender male): 2 h
AUC (Homo sapiens [2]; gender male and female): 2458 ng·h/mL and 2027 ng·h/mL
Cmax (Homo sapiens [2]; gender male and female): 756 ng/mL and 601 ng/mL
AUC (Homo sapiens [2]; gender male): 1137 ng·h/mL
Cmax (Homo sapiens [2]; gender male): 326 ng/mL
fraction unbound ([3]; read-out: Protein binding): 0.01
half-life ([3]; in vivo, gender male and female): 10 h
Tmax ([3]; in vivo): 3 h
Vd/F ([3]; in vivo, read-out: Vss/F): 70 L
t1/2 (Homo sapiens [4]): 8 h and 16 h and 10 h
Compound: COc1cc(C(=O)NS(=O)(=O)c2ccccc2C)ccc1Cc1cn(C)c2ccc(NC(=O)OC3CCCC3)cc12 [ZAFIRLUKAST]
